Patent US7879858B2, “Substituted tetrahydropyrrolopyrazine compounds and the use thereof in pharmaceutical compositions” (Gruenenthal GmbH, priority 2006, dated 2011)

What was measured:
NA reuptake = test: Inhibition of NA (noradrenaline) uptake in rat hypothalamus synaptosomes; type: biochemical; conditions: synaptosomes from hypothalamus of male rat brains
Method: (§1) Biological Data Inhibition of NA and 5HT Uptake
(§2) In order to be able to carry out these in vitro studies, synaptosomes are freshly isolated from areas of the rat brain. In each case a so-called “P2” fraction prepared in accordance with the instructions of Gray and Whittaker (E. G. Gray and V. P. Whittaker (1962) J. Anat. 76, 79-88) is prepared. For the NA uptake, these vesicular particles are isolated from the hypothalamus of male rat brains. A detailed description of the method can be found in the literature (M. Ch. Frink, H.-H. Hennies, W. Englberger, M. Haurand and B. Wilffert (1996) Arzneim.-Forsch./Drug Res. 46 (III), 11, 1029-1036).

Serotonin reuptake = biological target: T1, Serotonin reuptake (Rattus norvegicus, UniProt P31652); test: Inhibition of 5HT (serotonin) uptake in rat brain synaptosomes; type: biochemical; conditions: 10 μmol; synaptosomes from rat brain
T1 construct: synaptosomes are freshly isolated from areas of the rat brain; from tissue; host or cells: rat brain synaptosomes (P2 fraction)
Method: as §1, §2

T1 sequence (P31652 whole entry): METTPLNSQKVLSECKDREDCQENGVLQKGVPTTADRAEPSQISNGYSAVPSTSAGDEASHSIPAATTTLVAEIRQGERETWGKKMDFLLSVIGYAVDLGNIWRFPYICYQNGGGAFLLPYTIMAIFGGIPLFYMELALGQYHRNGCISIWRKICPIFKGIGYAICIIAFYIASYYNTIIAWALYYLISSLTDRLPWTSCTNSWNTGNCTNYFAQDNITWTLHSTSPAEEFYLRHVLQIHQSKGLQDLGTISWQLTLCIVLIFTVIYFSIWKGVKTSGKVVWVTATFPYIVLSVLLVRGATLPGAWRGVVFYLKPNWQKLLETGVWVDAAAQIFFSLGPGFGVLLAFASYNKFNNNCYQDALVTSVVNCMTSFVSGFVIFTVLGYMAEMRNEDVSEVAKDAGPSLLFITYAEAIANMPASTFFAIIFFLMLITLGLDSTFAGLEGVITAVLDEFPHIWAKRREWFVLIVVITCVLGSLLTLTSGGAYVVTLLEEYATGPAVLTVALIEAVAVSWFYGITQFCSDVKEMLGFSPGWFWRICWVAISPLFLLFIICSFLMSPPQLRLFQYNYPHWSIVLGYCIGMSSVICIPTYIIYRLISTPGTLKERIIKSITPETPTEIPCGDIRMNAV

Compound	NA reuptake % inhibition [10 μmol] (NA reuptake) [%]	inhibition at 10 µM (Serotonin reuptake) [%]
Cc1ccccc1C(=O)N1CCn2cccc2C1c1ccc(N(C)C)cc1 (centres unmarked) [Example 50, (1-(4-(dimethylamino)phenyl)-3,4-dihydropyrrolo[1,2-a]pyrazin-2(1H)-yl)(o-tolyl)methanone]	14	41
O=C(c1ccco1)N1CCn2cccc2C1c1ccc2c(c1)OCCO2 (centres unmarked) [Example 37, [1-(2,3-dihydro-benzo[1,4]dioxin-6-yl)-3,4-dihydro-1H-pyrrolo[1,2-a]pyrazin-2-yl]-furan-2-yl-methanone]	32	55
CC(C)C(=O)N1CCn2cccc2C1c1ccc(Cl)c(Cl)c1 (centres unmarked) [Example 67, 1-(1-(3,4-dichlorophenyl)-3,4-dihydropyrrolo[1,2-a]pyrazin-2(1H)-yl)-2-methylpropan-1-one]	46	46
COc1ccccc1C1c2cccn2CCN1C(=O)C1CCCC1 (centres unmarked) [Example 2, cyclopentyl-[1-(2-methoxy-phenyl)-3,4-dihydro-1H-pyrrolo[1,2-a]pyrazin-2-yl]-methanone]	36	79
O=C(c1ccc(F)cc1)N1CCn2cccc2C1c1ccc2c(c1)OCCO2 (centres unmarked) [Example 38, [1-(2,3-dihydro-benzo[1,4]dioxin-6-yl)-3,4-dihydro-1H-pyrrolo[1,2-a]pyrazin-2-yl]-(4-fluoro-phenyl)-methanone]	48	58
O=C(c1ccc(F)cc1)N1CCn2cccc2C1c1cccs1 (centres unmarked) [Example 60, (4-fluorophenyl)(1-(thiophen-2-yl)-3,4-dihydropyrrolo[1,2-a]pyrazin-2(1H)-yl)methanone]	11	37
Cc1ccsc1C(=O)N1CCn2cccc2C1c1ccccc1 (centres unmarked) [Example 70, (3-methylthiophen-2-yl)(1-phenyl-3,4-dihydropyrrolo[1,2-a]pyrazin-2(1H)-yl)methanone]	11	38
O=C(c1cccc(F)c1)N1CCn2cccc2C1c1cccs1 (centres unmarked) [Example 58, (3-fluoro-phenyl)-(1-thiophen-2-yl-3,4-dihydro-1H-pyrrolo[1,2-a]pyrazin-2-yl)-methanone]	54	60
O=C(c1ccc2c(c1)OCO2)N1CCn2cccc2C1c1cccc(Cl)c1 (centres unmarked) [Example 40, benzo[d][1,3]dioxol-5-yl(1-(3-chlorophenyl)-3,4-dihydropyrrolo[1,2-a]pyrazin-2(1H)-yl)methanone]	41	38
Cc1cccc(C2c3cccn3CCN2C(=O)CC(C)C)c1 (centres unmarked) [Example 15, 3-methyl-1-(1-m-tolyl-3,4-dihydropyrrolo[1,2-a]pyrazin-2(1H)-yl)butan-1-one]	19	28
O=C(c1ccccc1F)N1CCn2cccc2C1c1ccccc1F (centres unmarked) [Example 47, (2-fluorophenyl)(1-(2-fluorophenyl)-3,4-dihydropyrrolo[1,2-a]pyrazin-2(1H)-yl)methanone]	12	18
O=C(c1ccc2c(c1)OCO2)N1CCn2cccc2C1c1ccc(Cl)c(Cl)c1 (centres unmarked) [Example 61, benzo[1,3]dioxol-5-yl-[1-(3,4-dichloro-phenyl)-3,4-dihydro-1H-pyrrolo[1,2-a]pyrazin-2-yl]-methanone]	68	64
O=C(CCc1ccccc1)N1CCn2cccc2C1c1cccs1 (centres unmarked) [Example 76, 3-phenyl-1-(1-(thiophen-2-yl)-3,4-dihydropyrrolo[1,2-a]pyrazin-2(1H)-yl)propan-1-one]	46	36
